# According to US9402875B2, “Amidated dopamine neuron stimulating peptide restoration of mitochondrial activity” (University of Kentucky Research Foundation, priority 2006, dated 2016):
# Ends that are not written are not given here.
# Tests used:
# [1] = test system: Erk1/2; assay: ERK1/2 activation by western blot; assay type: cell-based; details: DNSP-11 0.1 uM or 1 uM or GDNF 50 ng/ml for 20 minutes
# Experimental: MN9D and B65 cell were cultured in DMEM; 11995 (containing pyridoxol HCl; Sigma, St. Louis, Mo.) supplemented with 10% fetal bovine serum (HyClone, Logan, Utah), 50 U/mL penicillin and streptomycin with DNSP-11 (0.1 uM or 1 uM) or GDNF (50 ng/ml) for 20 minutes. The cells were then solubilized in Triton-X-100/glycerol lysis buffer and subjected to electrophoresis and western blotting as partially described previously (Jiang et al., Mol Biol Cell 14:859-70 (2003)). To detect phosphorylated Erk (#4377 Cell Signaling) and ERK (#4696 Cell Signaling) by immunoblotting, the cells were directly lysed in the sample loading buffer. Secondary IRDye 700X and IRDye800 conjugated, fluorescent antibodies (Rockland Inc.) were used to detect signal with Odyssey v3.0 scanning software. Several blots were analyzed to determine the linear range of the fluorescence signals, and quantifications were performed using densitometry analysis.
# [2] = test system: normal young male Fischer 344 rats; assay: Striatal microdialysis 28 days after intranigral DNSP-11; assay type: in vivo, rat
# Experimental: Infusion Delivery of DNSP-11 or Vehicle: Isoflurane anesthetized (1.5-2.5%) F344 rats received 5 μl of 6 μg/μL DNSP-11 solution or citrate buffer vehicle solution in a blinded manner. Treatment was delivered to the nigral cell bodies using the same stereotaxic coordinates and protocol for solution delivery as in studies of GDNF.
# Reverse Microdialysis: Reverse in vivo microdialysis was accomplished using methods and brain coordinates described by Hebert et al. (1996)J Pharmacol. Exper. Ther. 279:1181-1190. CMA 11 microdialysis probes with a 4.0 mm membrane length and 6 kDa molecular weight cut-off were placed within the rat striatum.
# Prior studies with GDNF have shown robust effects on both potassium and amphetamine-evoked release 28 days after a single injection into the rat substantia nigra (Hebert et al. (1997) J. Pharm. Exp. Thera. 282: 760) indicating the functional effects of this trophic factor on dopamine signaling in the normal rat striatum. In the present experiment, 30 μg of DNSP-11 was injected into the right substantia nigra of normal young male Fischer 344 rats. Twenty-eight days after injection, in vivo microdialysis was performed in these animals to investigate dopamine neurochemistry in the ipsilateral striatum. […] Winkler et al. (1996) J. Neurosci. 16: 7206; Hebert et al. (1996) J Pharmacol Exper Ther. 279: 1181-1190 (1996).
# [3] = test system: unilateral 6-OHDA-lesioned rats; assay: Neurochemical content of tissue (HPLC-EC); assay type: in vivo, rat; details: 5 weeks after infusion
# Experimental: Unilateral 6-OHDA Lesions: The 6-OHDA solution was delivered to two injection sites along the medial forebrain bundle (MFB) using a protocol described by Lundblad et al. (2002) Eur. J. Neurosci. 15:120-132. Five weeks after the unilateral 6-OHDA MFB lesion procedure, animals were grouped based on apomorphine (0.05 mg/kg, s.c.)-induced rotational behaviour: Animals with >300 rotations per 60 minutes were selected. Lesioned animals received 5 vit of either a 20 μg/vd, DNSP-11 solution or citrate buffer vehicle solution in a manner similar to infusion delivery in normal animals.
# Neurochemical Content of Tissue: Lesioned animals were euthanized 5 weeks after DNSP-11 or vehicle infusion. The brains were sliced into 1 mm thick sections. […]
# The in vitro studies and in vivo measures of the effects of DNSP-11 led to an investigation of the potential neurorestorative properties of DNSP-11 to damaged dopamine neurons in a unilateral rat model of PD. […] At 5 weeks, the substantia nigra and striatum from each rat was analyzed by high performance liquid chromatography coupled with electrochemical detection.
# Rats were tested 3-4 weeks after the injection of 6-OHDA using low-dose (0.05 mg/kg, i.p.) apomorphine to induce rotational behavior. […] At 5 weeks, the substantia nigra and striatum from each rat was analyzed by high performance liquid chromatography coupled with electrochemical detection.
# [4] = molecular target: T1, GFRα1 (Homo sapiens, UniProt P56159); assay: Pull-down assay and ELISA with GFRα1; assay type: binding; details: pull-down with biotinylated DNSP-11; supported by ELISA
# T1 sequence (P56159 25-429): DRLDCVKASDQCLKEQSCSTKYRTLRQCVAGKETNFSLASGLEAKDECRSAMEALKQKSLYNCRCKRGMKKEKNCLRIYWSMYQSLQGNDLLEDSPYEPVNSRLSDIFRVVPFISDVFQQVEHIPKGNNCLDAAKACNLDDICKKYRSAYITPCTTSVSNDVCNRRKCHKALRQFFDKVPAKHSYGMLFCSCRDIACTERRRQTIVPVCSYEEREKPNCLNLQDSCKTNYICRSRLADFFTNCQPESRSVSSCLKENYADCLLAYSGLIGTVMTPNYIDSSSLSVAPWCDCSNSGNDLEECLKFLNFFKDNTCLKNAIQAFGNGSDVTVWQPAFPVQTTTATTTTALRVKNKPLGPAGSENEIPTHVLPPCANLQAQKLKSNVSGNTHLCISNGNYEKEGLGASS
# Experimental: Specifically, a solution of 25 μL GFRα1 (1 mg/mL) was incubated with 50 μL of Dynabeads® (Invitrogen) in wash and bind buffer (0.1 M sodium phosphate, pH 8.2, 0.01% ^Tween® 20) for 10 minutes at room temperature. The beads were then washed three times in 100 μl, of wash and bind buffer. 2 μg of GDNF was added and incubated for 1 hour at 4° C. 25 μL GFRα1 (1 mg/mL) was incubated with 40 μg of biotinylated DNSP-11 (bDNSP-11) for 1 hour at 4° C. They were then added to 50 μL of hydrophilic streptavidin magnetic beads (New England Biolabs) and incubated for an hour at 4° C.
# Moreover, the absence of interaction between GFRα1 with DNSP-11 is supported by ELISA.
# [5] = ipsilateral striatum, 28 days after 30 μg into right substantia nigra
substance,measurement,setting,value
"PPEAPAEDRSL-NH2 [DNSP-11, PPEAPAEDRSL-amide]",phosphorylation of Erk1/2 (ratio of phosphorylated to non-phosphorylated),[1]; B65 cells,increases significantly
same,phosphorylation of Erk1/2 (ratio of phosphorylated to non-phosphorylated),[1]; MN9D cells,increases significantly
same,Basal DA,"[2]; 28 days after delivery, vehicle 26.0±2.7 nM",45.8 ± 7.7 nM
same,Basal concentrations of HVA,"[2]; 28 days after delivery, vehicle 2419±251 nM",4.516 ± 0.502 µM
same,Basal concentrations of DOPAC,"[2]; 28 days after delivery, vehicle 3355±338 nM",6.544 ± 0.836 µM
same,"resting levels of HVA, increase vs controls",[2]; [5],over 100%
same,"resting levels of dopamine, increase vs controls",[2]; [5],over 100%
same,"DOPAC tissue content, substantia nigra",[3]; vehicle 7.10±1.40 ng/g,16.48 ± 4.01 ng/g
same,"DA content, substantia nigra",[3]; vehicle 34.7±6.4 ng/g,59.1 ± 7.3 ng/g
same,interaction with GFRα1,[4],do not interact
